The source of these data is PMC7366379 (Journal of the American Chemical Society, 2020).

As a reminder, the solubility is the concentration that dissolves in the medium under given conditions. Lower therefore signals a poorly soluble substance. For orientation: Kd means the equilibrium constant for the complex coming apart. As a reminder, the koff is the rate constant with which the complex falls apart. In general, kon refers to the second-order rate constant of association. A low value points to slow association.

Several values for one entry are separate records, joined by “and”; a condition that tells them apart may be missing. Equal values may be shown once. Read-outs that look alike come from different tables or passages of the source. Side chains are listed from the residue outwards. Ends that are not written are not given here. Peptide text beside a SMILES is read from it. * marks the point of attachment. Biotin = O=C1N[C@H]2[C@H](CS[C@H]2CCCCC(=O)*)N1

Series [1] has as its target T1, OmpF (Escherichia coli, UniProt P02931).
T1 sequence (P02931 23-362): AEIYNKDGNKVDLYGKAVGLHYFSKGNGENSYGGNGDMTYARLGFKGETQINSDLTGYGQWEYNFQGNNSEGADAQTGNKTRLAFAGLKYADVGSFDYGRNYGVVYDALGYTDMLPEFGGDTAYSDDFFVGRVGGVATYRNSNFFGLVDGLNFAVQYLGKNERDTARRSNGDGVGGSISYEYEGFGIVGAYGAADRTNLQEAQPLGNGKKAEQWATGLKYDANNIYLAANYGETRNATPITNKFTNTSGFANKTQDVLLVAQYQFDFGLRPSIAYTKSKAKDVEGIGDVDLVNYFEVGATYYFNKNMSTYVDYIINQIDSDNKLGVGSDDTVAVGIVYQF
The series is classed as binding. Further details: made in house; host or cells: E. coli BZB1107 (ompF-, ompC-), plasmid pNGH72. The settings on record: for k1 / k2 / k3 / k–1 / k–2 / k–3: extrapolated to 0 mV; for k1: DPhPC bilayer, 20 mM potassium phosphate pH 6.4, 0.1 M KCl, 20.5 °C, at least three independent experiments; for k2 / k3 / k–1 / k–2 / k–3: pH 6.4, 0.1 M KCl.

Series [2] has as its target T1, OmpF.
Series [3] is described as follows: Solubility of IUTD constructs. Type of series: physicochemical.
The target in another series is OmpF (Escherichia coli) (UniProt P02931). The experiment in a line: ITC. The following applies: cited from earlier work.
Series [4] has as its target OmpF porin trimer (outer-membrane protein F) (Escherichia coli) (UniProt P02931). Put plainly: single-channel electrical recording in planar lipid bilayer.
Series [5] shares this target. The description is as above. This is another data set of the same source.
For series [6] the target is unchanged. Put plainly: single-channel electrical recording in planar lipid bilayer; single OmpF trimer in a DPhPC bilayer; binder added to the extracellular side; -100 mV (as stated for Figures 2, 3 and 5); 20 mM potassium phosphate pH 6.4, 0.1 M KCl, 20.5 °C.
Series [7] has as its target AEDANS-labelled OBS1-fusion protein (colicin E9 OmpF-binding site 1 fused to a carrier) (UniProt P09883). The experiment in a line: stopped-flow FRET (OmpF tryptophans to AEDANS). The following applies: pH 6.5, 4 °C, no added salt stated (20 mM potassium phosphate only).
In series [8] the target is T2, OmpF porin trimer (outer-membrane protein F) (Escherichia coli, UniProt P02931 23-362).
T2 sequence (looked up): T1 sequence (P02931 23-362)
The experiment in a line: single-channel electrical recording in planar lipid bilayer; single OmpF trimer in a DPhPC bilayer; free peptide added to the periplasmic (trans) side, positive potentials; constants of Table 1 extrapolated to 0 mV, Kd for a single OmpF subunit; 20 mM potassium phosphate pH 6.4, 0.1 M KCl, 20.5 °C. The following applies: both partners purified.

Series [9] has as its target T2, OmpF porin trimer (outer-membrane …). The experiment in a line: single-channel electrical recording in planar lipid bilayer; single OmpF trimer in a DPhPC bilayer; free peptide added to the extracellular (cis) side, negative potentials; constants of Table 1 extrapolated to 0 mV, Kd for a single OmpF subunit; 20 mM potassium phosphate pH 6.4, 0.1 M KCl, 20.5 °C. The following applies: both partners purified.

For series [10] the target is unchanged. Put plainly: single-channel electrical recording in planar lipid bilayer; single OmpF trimer in a DPhPC bilayer; mSA-capped peptide added to the periplasmic side; +100 mV (where stated); 20 mM potassium phosphate pH 6.4, 0.1 M KCl, 20.5 °C. The following applies: both partners purified.
In series [11] the target is T3, OmpF porin trimer (E. coli, UniProt P02931 23-362).
T3 sequence (looked up): T1 sequence (P02931 23-362)
The experiment in a line: single-channel electrical recording in planar lipid bilayers; current-voltage plots (-100 to +100 mV) of individual OmpF pores before and after addition of the binder to the extracellular side. The following applies: both partners purified.

The target in series [12] is T2, OmpF porin trimer (outer-membrane …). Put plainly: single-channel electrical recording in planar lipid bilayer; single OmpF trimer in a DPhPC bilayer; binder added to the extracellular side; -100 mV (as stated for Figures 2, 3 and 5); 20 mM potassium phosphate pH 6.4, 0.1 M KCl, 20.5 °C. The settings on record: both partners purified.
Series [13] shares this target. The experiment in a line: single-channel electrical recording in planar lipid bilayer; single OmpF trimer in a DPhPC bilayer; free peptide added to the extracellular (cis) side, negative potentials; constants of Table 1 extrapolated to 0 mV, Kd for a single OmpF subunit; 20 mM potassium phosphate pH 6.4, 0.1 M KCl, 20.5 °C. The following applies: both partners purified. The source holds these as a separate data set.

Series [14] shares this target. The experiment in a line: single-channel electrical recording in planar lipid bilayer; single OmpF trimer in a DPhPC bilayer; free peptide added to the periplasmic (trans) side, positive potentials; constants of Table 1 extrapolated to 0 mV, Kd for a single OmpF subunit; 20 mM potassium phosphate pH 6.4, 0.1 M KCl, 20.5 °C. The settings on record: both partners purified. This is another data set of the same source.

The target of series [15] is T3, OmpF porin trimer. The experiment in a line: single-channel electrical recording in planar lipid bilayers; single OmpF trimer in a DPhPC bilayer; peptide added to the extracellular side; phosphate buffer pH 6.4, 100 mM KCl; rate constants at 0 mV by extrapolation from negative applied potentials; Kd for the OmpF monomer (k-1 divided by one-third of k1). The following applies: both partners purified.

For series [16], the target named is T3, OmpF porin trimer. The experiment in a line: single-channel electrical recording in planar lipid bilayers; OmpF trimer with two subunits already occluded by untagged IUTD (added to the extracellular side at -100 mV, rest removed by buffer exchange); 1 µM peptide then added to the periplasmic side at +50 mV. The settings on record: both partners purified.
The mark [17] stands for this setting: peptide from the periplasmic side, ± s.d., at least three experiments.
Setting [18] is: peptide from the extracellular side, ± s.d., at least three experiments.

Chain of AEDANS-labelled OBS1-fusion protein (colicin E9 OmpF-binding site 1 fused to a carrier) (P09883 whole entry, the tested form may be a part): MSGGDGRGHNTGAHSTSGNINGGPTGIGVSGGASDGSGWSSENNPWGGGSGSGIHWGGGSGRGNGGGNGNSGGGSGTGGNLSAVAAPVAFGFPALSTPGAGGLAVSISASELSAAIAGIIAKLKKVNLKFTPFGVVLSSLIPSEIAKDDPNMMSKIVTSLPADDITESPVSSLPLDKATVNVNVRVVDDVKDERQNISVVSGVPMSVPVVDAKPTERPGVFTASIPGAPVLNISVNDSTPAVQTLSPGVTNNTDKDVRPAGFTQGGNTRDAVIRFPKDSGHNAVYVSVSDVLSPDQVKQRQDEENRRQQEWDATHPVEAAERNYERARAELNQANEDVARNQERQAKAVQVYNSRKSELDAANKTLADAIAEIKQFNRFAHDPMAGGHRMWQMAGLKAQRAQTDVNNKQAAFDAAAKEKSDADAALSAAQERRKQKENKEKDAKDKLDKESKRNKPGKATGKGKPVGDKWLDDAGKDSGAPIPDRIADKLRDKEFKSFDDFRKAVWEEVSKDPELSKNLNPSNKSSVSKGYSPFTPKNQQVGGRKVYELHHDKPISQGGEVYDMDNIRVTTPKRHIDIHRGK

For the molecule `C[C@H](NC(=O)CNC(=O)[C@@H](NC(=O)[C@H](CC(N)=O)NC(=O)[C@H](Cc1c[nH]cn1)NC(=O)CNC(=O)[C@H](CCCNC(=N)N)NC(=O)CNC(=O)[C@H](CC(=O)O)NC(=O)CNC(=O)CNC(=O)[C@@H](N)CO)[C@@H](C)O)C(=O)N[C@@H](Cc1c[nH]cn1)C(=O)N[C@@H](CO)C(=O)N[C@H](C(=O)N[C@@H](CO)C(=O)NCC(N)=O)[C@@H](C)O` [OBS1_2–18] (H-SGGDGRGHNTGAHSTSG-NH2), the k1 at OmpF [1] (peptide from the periplasmic side, ± s.d.) is 9.6 ± 0.60 10^6 M^–1 s^–1. Moreover, at OmpF [1] (setting [17]), the k2 was 6.1 ± 0.42 10^6 M^–1 s^–1, the k3 is listed as 3.2 ± 0.25 10^6 M^–1 s^–1, the “k–1” value is 43 ± 1.5 s^–1 and the “k–2” value is recorded as 78 ± 3.9 s^–1. Also, at OmpF [1] (setting [17]), the “k–3” value is reported as 111 ± 6.6 s^–1.

In the case of `CC[C@H](C)[C@H](NC(C)=O)C(=O)N[C@@H](Cc1c[nH]cn1)C(=O)N[C@@H](Cc1c[nH]c2ccccc12)C(=O)NCC(=O)NCC(=O)NCC(=O)N[C@@H](CO)C(=O)NCC(=O)N[C@@H](CCCNC(=N)N)C(=O)NCC(N)=O` [OBS2_54–63] (Ac-IHWGGGSGRG-NH2), on OmpF [1] (OBS2 peptide, PLB recording), the “higher affinity from the periplasmic side than from the extracellular side” value is recorded as 200 times and the “slower dissociation when added to the periplasmic side than to the extracellular side” value is 4 orders of magnitude. Also, at OmpF [1] (peptide from the extracellular side, ± s.d.), the k1 was 4.0 ± 0.60 10^6 M^–1 s^–1. Further, the k3 at OmpF [1] (peptide from the extracellular side, fewer events (<100), error relatively large) is given as 0.97 ± 0.50 ^b 10^6 M^–1 s^–1. For the same molecule, at OmpF [1] (setting [18]), the k2 is recorded as 2.2 ± 0.64 10^6 M^–1 s^–1, the “k–1” value was 1.3 ± 0.10 × 10^4 s^–1, the “k–2” value is 2.5 ± 0.34 × 10^4 s^–1 and the “k–3” value is reported as 3.2 ± 0.47 × 10^4 s^–1.

As for “ColE9_2–83-ENLYFQ [IUTD, intrinsically unstructured N-terminal translocation domain of ColE9, residues 2–83, released by TEV cleavage]”, the “k12′ (rebinding)” value at OmpF [2] is listed as “≈ 10^3 s^–1”. In addition, at OmpF [2] (SD), the “Association with a first subunit: k01” value is 6.3 ± 1.9 104 M-1s-1 and 10 ± 4.1 104 M-1s-1; the “Initial binding of the OBS1 sequence to a second subunit: k12” value was 58 ± 13 s⁻¹ and 38 ± 17 s⁻¹; the “Rebinding of the OBS1 sequence to a second subunit: k12’” value is 2200 ± 270 s⁻¹ and 1400 ± 340 s⁻¹; the “Unbinding of the OBS1 sequence from the second subunit: k21” value is 2.6 ± 1.1 s⁻¹ and 3.4 ± 0.7 s⁻¹. On OmpF [2] (pH 6.4), the “k01, association with the first OmpF subunit” value was “≈ 10^4 M^–1 s^–1”; the “k12, initial binding of OBS1 to the second OmpF subunit” value was “≈ 10 ^2 s^–1”; the “occlusion of OmpF subunits after addition to the extracellular side (in words)” value is reported as “sequential occlusion of two OmpF subunits”. In series [3], this molecule showed a solubility of at most 5 µM.

For “Colicin E9 OBS1 2-18 (from UniProt P09883)”, in the series with OmpF (Escherichia coli), the Kd is 1.8 µM.

Regarding “Colicin E9 OBS2 54-63 (from UniProt P09883)”, the Kd with OmpF (Escherichia coli) is 24 µM.

“IUTD-fusion (ColE9_(1–83)-TEV-E9 DNase·Im9His6) (from UniProt P09883 1-83; P13479 1-86) (complex)”: in series [4], the k01 (association with the first subunit, at 0 mV) worked out at 9800 M⁻¹ s⁻¹ and the other was 181 s⁻¹. Also, in series [5], the k21' (unbinding of OBS1 from the second subunit, at 0 mV) was determined as 3.9 s⁻¹ and the other came out at 5300 s⁻¹. Besides, in series [6], the effective molarity (EM) worked out at 0.9 mM and the koff (failed attempts at threading during the latency) amounted to 300 s⁻¹.

OmpF porin (outer membrane protein F): in series [7], the “k1 (association rate constant)” value came to 9.80 ± 0.31 μM^–1 s^–1 and the “k–1 (dissociation rate constant)” value came out at 3.22 ± 0.03 s^–1.

For the molecule H-SGGDGRGHNTGAHSTSG-NH2, the figures for the dissociation constant Kd in series [8] and in series [9] were 13 µM and 5000 µM, respectively.

SGGDGRGHNTGAHSTSGSSGGSSGGSSGGC([HPDP-Biotin]) (also: bound to monovalent streptavidin) [OBS1–mSA (OBS1_(2-18)-Linker-Cys-HPDP-Biotin bound to monovalent streptavidin)]: in series [10], the dissociation rate constant (koff) is around 600 s⁻¹ and the kon is around 5e+06 M⁻¹ s⁻¹.

B1: untagged IUTD (ColE9_(2-83)-ENLYFQ) (domain or fragment)
chain: SGGDGRGHNTGAHSTSGNINGGPTGIGVSGGASDGSGWSSENNPWGGGSGSGIHWGGGSGRGNGGGNGNSGGGSGTGGNLSAENLYFQ
Consider B1, for which the binding result with OmpF porin trimer [11] was “binds”.

B2: free IUTD (ColE9_(2–83)-ENLYFQ) (domain or fragment)
chain: B1 chain
With B2, in series [12], the binding result is reported as “binds”.

For the molecule C([HPDP-Biotin])GGSSGGSSGGSSIHWGGGSGRG (also: bound to monovalent streptavidin) [mSA–OBS2 (Biotin-HPDP-Cys-Linker-OBS2_(54-63) bound to monovalent streptavidin)], the binding result in [10] is given as “binds”.

Regarding Ac-IHWGGGSGRG-NH2 [OBS2_(54-63) peptide (acetyl-OBS2_(54-63)-CONH2)], the Kd in series [13] is 11000 µM; in [14], 60 µM.

For SGGDGRGHNTGAHSTSG-NH2, the Kd with OmpF porin trimer [15] was 5400 µM.

Consider SGGDGRGHNTGAHSTSGNINGGPTG-NH2 (peptide, UniProt P09883 2-26, looked up) [OBS1_(2-26) peptide (NH2-OBS1_(2-26)-CONH2)], for which, in the series with OmpF porin trimer [16], the binding result is “binds”.
